# ± gives the standard deviation of the averaged measurements.
# Experiments:
# Conditions in all cases: 72 h
# Caco-2 [1] = assay: cell viability relative to DMSO; higher = less toxic
# Calu-3 [2] = assay: as above
# HepG2 [3] = assay: as above
# U2OS [4] = assay: as above
# Vero E6 [5] = assay: as above
# Caco-2 [6] = assay: relative viability EC50 (midpoint between 100% and the lowest measured viability); higher = less toxic
# Calu-3 [7] = assay: as above
# HepG2 [8] = assay: as above
# U2OS [9] = assay: as above
# Vero E6 [10] = assay: as above
# Caco-2 [11] = assay: drug sensitivity score (DSS) for viability; higher = more toxic; extreme values may be limits of the assay
# Calu-3 [12] = assay: as above
# HepG2 [13] = assay: as above
# U2OS [14] = assay: as above
# Vero E6 [15] = assay: as above
Structure (SMILES),cell viability (Caco-2 [1]; 1 nM) [%],cell viability (Caco-2 [1]; 10 nM) [%],cell viability (Caco-2 [1]; 100 nM) [%],cell viability (Caco-2 [1]; 1000 nM) [%],cell viability (Caco-2 [1]; 10000 nM) [%],cell viability (Calu-3 [2]; 1 nM) [%],cell viability (Calu-3 [2]; 10 nM) [%],cell viability (Calu-3 [2]; 100 nM) [%],cell viability (Calu-3 [2]; 1000 nM) [%],cell viability (Calu-3 [2]; 10000 nM) [%],cell viability (HepG2 [3]; 1 nM) [%],cell viability (HepG2 [3]; 10 nM) [%],cell viability (HepG2 [3]; 100 nM) [%],cell viability (HepG2 [3]; 1000 nM) [%],cell viability (HepG2 [3]; 10000 nM) [%],cell viability (U2OS [4]; 1 nM) [%],cell viability (U2OS [4]; 10 nM) [%],cell viability (U2OS [4]; 100 nM) [%],cell viability (U2OS [4]; 1000 nM) [%],cell viability (U2OS [4]; 10000 nM) [%],cell viability (Vero E6 [5]; 1 nM) [%],cell viability (Vero E6 [5]; 10 nM) [%],cell viability (Vero E6 [5]; 100 nM) [%],cell viability (Vero E6 [5]; 1000 nM) [%],cell viability (Vero E6 [5]; 10000 nM) [%],relative viability EC50 (Caco-2 [6]) [µM],relative viability EC50 (Calu-3 [7]) [µM],relative viability EC50 (HepG2 [8]) [µM],relative viability EC50 (U2OS [9]) [µM],relative viability EC50 (Vero E6 [10]) [µM],drug sensitivity score (Caco-2 [11]),drug sensitivity score (Calu-3 [12]),drug sensitivity score (HepG2 [13]),drug sensitivity score (U2OS [14]),drug sensitivity score (Vero E6 [15])
NCCCCCNCC12CC3CC(CC(C3)C1)C2 [IEM1754],104,97.4,101,104,102,108,106,91,97.8,82.1,106,89.3,98.1,97.8,97.9,98.6,106,100,100,99,98.6,98.6,94.7,97.3,102,> 10,> 10,> 10,> 10,> 10,0,0.7,0,0,0
COc1ccc2c3c([nH]c2c1)[C@H](CC(C)C)N1C(=O)[C@H](CCC(=O)OC(C)(C)C)NC(=O)[C@@H]1C3 [Ko143],95.7,99.6,91.8,91.4,93,89.8,100,97.7,98.6,97.9,101,86.3,92.5,85.6,97.9,98.7,101,98.1,100,94.1,99.3,96.7,101,93,97.7,> 10,> 10,> 10,> 10,> 10,0,0,0,0,0
COc1cc([C@@H]2c3cc4c(cc3[C@@H](O[C@@H]3O[C@@H]5CO[C@@H](C)O[C@H]5[C@H](O)[C@H]3O)[C@H]3COC(=O)[C@H]23)OCO4)cc(OC)c1OP(=O)(O)O [etoposide-phosphate],81.7,92.6,91.9,102,107,107,106,98.3,85.7,47.1,88.6,86.8,85.4,59.7,29.5,95.1,104,94.9,99.7,108,93.3,97.6,92.7,86.7,88.3,> 10,1.49,0.478,> 10,> 10,0,5,10,0,0.3
O=C1C(=Cc2cccnc2)C(=O)c2ccccc21 [PRT4165],107,86.5,101,87.1,98.2,104,103,98.4,97.4,95.6,113,98.5,92.1,103,87.6,102,98.9,99.1,99.6,98.3,96.1,99,103,98.4,87.6,> 10,> 10,> 10,> 10,> 10,0,0,0,0,0.2
Cc1ncc(Cl)cc1NCc1ccc(C(=O)N[C@@H](CC2CCCC2)C(=O)NC2CC2)s1,99.9,104,97.5,96.3,96.6,94.7,106,99.8,89.7,109,100,102,97.5,89.7,88.2,99.5,104,94.5,95,90.6,107,94.7,104,98,91.6,> 10,> 10,> 10,> 10,> 10,0,0,0.4,0,0
N[C@H]1CCN(O)C1=O [HA-966-(S)-(-)],103 ± 1.2,86.4 ± 7.8,106 ± 5.9,96 ± 3.5,102 ± 5.2,104 ± 4.8,95.8 ± 4.6,99.6 ± 2.1,94.7 ± 7.3,97.6 ± 0.71,93.2,107,100,104,106,97.6 ± 2.7,96.8 ± 2,98.5 ± 3.2,96.9 ± 0.71,97.2 ± 3.2,96.8 ± 9.3,95.3,93.35 ± 0.35,97.6 ± 3.4,102 ± 4.7,> 10,> 10,> 10,> 10,> 10,0,0,0,0,0
Cc1cc(-c2ccc(CC(=O)Nc3ccc(-c4cccnc4)cc3)cc2)ccn1 [wnt-c59],104,94.8,109,96.1,85,106,106,101,98,83.6,96.3,110,94.5,103,81.8,93.9,93.6,94.8,92.9,91.3,97.1,101,100,99.5,102,> 10,> 10,> 10,> 10,> 10,0.6,0.5,0.3,0,0
CC(=O)O[C@]1(C(C)=O)CC[C@H]2[C@@H]3C[C@H](C)C4=CC(=O)C=C[C@]4(C)[C@@]3(F)[C@@H](O)C[C@@]21C [fluorometholone-acetate],99.9,109,99.1,104,86.6,103,100,97.8,106,98.9,102,95.6,101,92.7,89.7,105,103,99.3,98.5,96.2,93.5,98.3,93.9,95.7,90.4,> 10,> 10,> 10,> 10,> 10,0.1,0,0,0,0
O=C(CCCCCCNC(=O)c1cnc(N(c2ccccc2)c2ccccc2)nc1)NO [ACY-1215],108,92.8,106,94.3,27.2,107,93.5,100,82,38.6,96.5,108,87.3,86,16.2,102,101,107,88.6,33.3,92.9,100,94.2,96.9,47.7,2.53,1.42,1.89,1.87,2.7,4.9,6,7,5.6,3.2
Oc1cc2c(cc1O)[C@@H]1c3ccc(O)c(O)c3OC[C@]1(O)C2 [hematoxylin],98.4,89.9,93,108,90,97.1,103,92.4,110,96.1,104,100,96.4,104,105,98.5,93.5,99.2,103,91.1,95.2,99.3,92.7,95.5,102,> 10,> 10,> 10,> 10,> 10,0,0,0,0,0
NC1CCN(c2nc3c(cc2F)c(=O)c(C(=O)O)cn3-c2ccc(F)cc2F)C1 (stereo not given) [tosufloxacin],96,99.9,111,99.4,81.7,95.1,103,101,103,124,88.1,87.6,95.9,96.3,78.6,97.3,104,98.6,102,95,101,101,108,101,99.7,> 10,> 10,> 10,> 10,> 10,0.5,0,0,0,0

# Reference: the supplement of paper PMC13380429
